Target: T1, BenM (Acinetobacter baylyi, UniProt O68014)
T1 construct: expressed in transfected cells; host or cells: Saccharomyces cerevisiae CEN.PK113-5A, chromosomal integration; promoters TDH3p, TEF1p, RNR2p or REV1p
Test: CCM-induced GFP expression in yeast strains combining BenM expression cassettes and CYC1p reporter promoter variants (flow cytometry)
Format: cell-based, Saccharomyces cerevisiae
Conditions: for FC (+/−CCM): 1.4 mM CCM
From the text: Strains, chemicals and media. Saccharomyces cerevisiae CEN.PK102-5B (MATa ura3-52 his3Δ1 leu2-3/112 MAL2-8^c SUC2), CEN.PK113-5A (MATa, trp1 his3Δ1 leu2-3/112 MAL2-8^c SUC2) and CEN.PK113-7D (wild type, MATa MAL2-8^c SUC2) strains were obtained from Peter Kotter (Johann Wolfgang Goethe-University Frankfurt, Germany). In principal any other yeast strains may be used, such as one obtained from public repository EuroScarf. EasyClone plasmids used in this work are described in Jensen, N. B. et al. EasyClone: method for iterative chromosomal integration of multiple genes in Saccharomyces cerevisiae. FEMS Yeast Res. 14, 238-48 (2014). Escherichia coli strain DH5a was used as a host for cloning and plasmid propagation. The chemicals and Pfu TURBO DNA polymerase were commercially obtained (Sigma-Aldrich and Agilent Technologies Inc., respectively). All acids used were >97% in purity. S. cerevisiae cells were grown at 30° C. in synthetic complete medium as well as drop-out media and agar plates were prepared using pre-mixed drop-out powders (Sigma-Aldrich). Mineral medium was freshly prepared as described previously. For all media containing diacids, 1.4 mM of the individual diacids were dissolved in mineral medium and pH adjusted to 4.5 before sterile filtration. For CCM several dilutions were made to examine the performance of the CCM biosensor. For naringenin, mineral medium was supplemented with 0, 0.05, 0.10 or 0.20 mM naringenin, dissolved in ethanol, the final ethanol concentration for each medium was 2% (v/v), and the final pH of the medium was adjusted to 6.0. E. coli cells were grown at 37° C. in Luria-Bertani (LB) medium supplemented with 100 μg/mL ampicillin.
Events were analyzed using FlowJo software (TreeStar Inc.).

T1 sequence (O68014 whole entry): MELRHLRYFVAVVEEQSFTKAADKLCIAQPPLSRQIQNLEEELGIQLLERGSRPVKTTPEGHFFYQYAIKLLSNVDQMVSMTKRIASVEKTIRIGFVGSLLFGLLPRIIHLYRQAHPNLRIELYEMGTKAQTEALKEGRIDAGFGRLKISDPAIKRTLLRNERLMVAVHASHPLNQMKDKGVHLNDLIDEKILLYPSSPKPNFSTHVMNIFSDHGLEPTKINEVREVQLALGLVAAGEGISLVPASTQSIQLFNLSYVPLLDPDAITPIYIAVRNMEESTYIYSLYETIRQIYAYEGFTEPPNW

With O=C(O)/C=C\C=C/C(=O)O [CCM, cis, cis-muconic acid] the “maximum induction of GFP output” value (chromosomally integrated BenM, 1.4 mM (200 mg/L) CCM, 24 h) was 3.5 fold, the “increase in reporter output from all CYC1 promoters that harbored BenO” value (full-length CYC1p with BenO (T1, T2, T1/T2), BenM from TEF1p, 200 mg/L CCM, pH 4.5, 24 h) was 1.3-2.2 fold and the “highest dynamic range (CCM-inducibility)” value (minimal promoters 249 bp_CYC1p_BenO_T1 and 209 bp_CYC1p_BenO_T1) was 3.2-4.7 fold. The “change in reporter output from native CYC1p” value (native CYC1p, 200 mg/L CCM, pH 4.5, 24 h) was “no change”, the “Mean fluorescense intensities of GFP (24 h), CCM (1.4 mM)” value (“Mean fluorescense intensities of GFP” below) (strain MeLS0020, TEF1p-BenM + 491bp_CYC1p_BenO_T2:GFP) was 813 and the “FC (+/−CCM)” value (strain MeLS0020, TEF1p-BenM + 491bp_CYC1p_BenO_T2:GFP, 24 h) was 2.224. The “Mean fluorescense intensities of GFP” value (strain MeLS0021, TEF1p-BenM + 491bp_CYC1p_BenO_T1/T2:GFP) was 2967, the “FC (+/−CCM)” value (strain MeLS0021, TEF1p-BenM + 491bp_CYC1p_BenO_T1/T2:GFP, 24 h) was 2.184 and the “Mean fluorescense intensities of GFP” value (strain MeLS0025, TEF1p-BenM + 209bp_CYC1p_BenO_T1:GFP) was 4139. For the same molecule, the “FC (+/−CCM)” value (strain MeLS0025, TEF1p-BenM + 209bp_CYC1p_BenO_T1:GFP, 24 h) was 3.494, the “Mean fluorescense intensities of GFP” value (strain MeLS0026, TEF1p-BenM + 209bp_CYC1p_BenO_T2:GFP) was 406 and the “FC (+/−CCM)” value (strain MeLS0026, TEF1p-BenM + 209bp_CYC1p_BenO_T2:GFP, 24 h) was 1.068. For the same molecule, the “Mean fluorescense intensities of GFP” value (strain MeLS0027, TEF1p-BenM + 209bp_CYC1p_BenO_T1/T2:GFP) was 1879, the “FC (+/−CCM)” value (strain MeLS0027, TEF1p-BenM + 209bp_CYC1p_BenO_T1/T2:GFP, 24 h) was 3.394 and the “Mean fluorescense intensities of GFP” value (strain MeLS0044, REV1p-BenM + 491bp_CYC1p_BenO_T2:GFP) was 667. For the same molecule, the “FC (+/−CCM)” value (strain MeLS0044, REV1p-BenM + 491bp_CYC1p_BenO_T2:GFP, 24 h) was 1.524, the “Mean fluorescense intensities of GFP” value (strain MeLS0045, REV1p-BenM + 491bp_CYC1p_BenO_T1/T2:GFP) was 1698 and the “FC (+/−CCM)” value (strain MeLS0045, REV1p-BenM + 491bp_CYC1p_BenO_T1/T2:GFP, 24 h) was 1.418. The CCM-inducibility (strain MeLS0049, 209 bp_CYC1p_BenO_T1, BenM from REV1p) was 3.8 fold, the “Mean fluorescense intensities of GFP” value (strain MeLS0049, REV1p-BenM + 209bp_CYC1p_BenO_T1:GFP) was 880 and the “FC (+/−CCM)” value (strain MeLS0049, REV1p-BenM + 209bp_CYC1p_BenO_T1:GFP, 24 h) was 3.81. For the same molecule, the “Mean fluorescense intensities of GFP” value (strain MeLS0050, REV1p-BenM + 209bp_CYC1p_BenO_T2:GFP) was 182, the “FC (+/−CCM)” value (strain MeLS0050, REV1p-BenM + 209bp_CYC1p_BenO_T2:GFP, 24 h) was 1.166 and the “Mean fluorescense intensities of GFP” value (strain MeLS0051, REV1p-BenM + 209bp_CYC1p_BenO_T1/T2:GFP) was 307. For the same molecule, the “FC (+/−CCM)” value (strain MeLS0051, REV1p-BenM + 209bp_CYC1p_BenO_T1/T2:GFP, 24 h) was 1.569, the “Mean fluorescense intensities of GFP” value (strain MeLS0070, RNR2p-BenM + 209bp_CYC1p_BenO_T1/T2:GFP) was 356 and the “FC (+/−CCM)” value (strain MeLS0070, RNR2p-BenM + 209bp_CYC1p_BenO_T1/T2:GFP, 24 h) was 1.775. For the same molecule, the “Mean fluorescense intensities of GFP” value (strain MeLS0079, TEF1p-BenM) was 185, the “FC (+/−CCM)” value (strain MeLS0079, TEF1p-BenM, 24 h) was 1.071 and the “Mean fluorescense intensities of GFP” value (strain MeLS0081, REV1p-BenM) was 175. For the same molecule, the “FC (+/−CCM)” value (strain MeLS0081, REV1p-BenM, 24 h) was 1.105, the “Mean fluorescense intensities of GFP” value (strain MeLS0139, REV1p-BenM + 491bp_CYC1p:GFP) was 2231 and the “FC (+/−CCM)” value (strain MeLS0139, REV1p-BenM + 491bp_CYC1p:GFP, 24 h) was 0.9828. For the same molecule, the “Mean fluorescense intensities of GFP” value (strain MeLS0140, REV1p-BenM + 272bp_CYC1p:GFP) was 183, the “FC (+/−CCM)” value (strain MeLS0140, REV1p-BenM + 272bp_CYC1p:GFP, 24 h) was 1.105 and the “Mean fluorescense intensities of GFP” value (strain MeLS0141, REV1p-BenM + 249bp_CYC1p:GFP) was 176. For the same molecule, the “FC (+/−CCM)” value (strain MeLS0141, REV1p-BenM + 249bp_CYC1p:GFP, 24 h) was 1.056, the “Mean fluorescense intensities of GFP” value (strain MeLS0142, REV1p-BenM + 209bp_CYC1p:GFP) was 174 and the “FC (+/−CCM)” value (strain MeLS0142, REV1p-BenM + 209bp_CYC1p:GFP, 24 h) was 1.09. For the same molecule, the “Mean fluorescense intensities of GFP” value (strain MeLS0143, REV1p-BenM + 491bp_CYC1p_BenO_T1:GFP) was 5789, the “FC (+/−CCM)” value (strain MeLS0143, REV1p-BenM + 491bp_CYC1p_BenO_T1:GFP, 24 h) was 1.088 and the “Mean fluorescense intensities of GFP” value (strain MeLS0144, REV1p-BenM + 272bp_CYC1p_BenO_T1:GFP) was 804. For the same molecule, the “FC (+/−CCM)” value (strain MeLS0144, REV1p-BenM + 272bp_CYC1p_BenO_T1:GFP, 24 h) was 2.381, the “Mean fluorescense intensities of GFP” value (strain MeLS0145, REV1p-BenM + 249bp_CYC1p_BenO_T1:GFP) was 405 and the “FC (+/−CCM)” value (strain MeLS0145, REV1p-BenM + 249bp_CYC1p_BenO_T1:GFP, 24 h) was 1.953. The “Mean fluorescense intensities of GFP” value (strain MeLS0147, TDH3p-BenM + 272bp_CYC1p_BenO_T1:GFP) was 4984, the “FC (+/−CCM)” value (strain MeLS0147, TDH3p-BenM + 272bp_CYC1p_BenO_T1:GFP, 24 h) was 3.738 and the “Mean fluorescense intensities of GFP” value (strain MeLS0148, TEF1p-BenM + 272bp_CYC1p_BenO_T1:GFP) was 4032. For the same molecule, the “FC (+/−CCM)” value (strain MeLS0148, TEF1p-BenM + 272bp_CYC1p_BenO_T1:GFP, 24 h) was 3.463, the “Mean fluorescense intensities of GFP” value (strain MeLS0149, RNR2p-BenM + 272bp_CYC1p_BenO_T1:GFP) was 854 and the “FC (+/−CCM)” value (strain MeLS0149, RNR2p-BenM + 272bp_CYC1p_BenO_T1:GFP, 24 h) was 2.313. For the same molecule, the “Mean fluorescense intensities of GFP” value (strain MeLS0150, TDH3p-BenM + 209bp_CYC1p_BenO_T1:GFP) was 4868, the “FC (+/−CCM)” value (strain MeLS0150, TDH3p-BenM + 209bp_CYC1p_BenO_T1:GFP, 24 h) was 4.082 and the “Mean fluorescense intensities of GFP” value (strain MeLS0151, RNR2p-BenM + 209bp_CYC1p_BenO_T1:GFP) was 859. For the same molecule, the “FC (+/−CCM)” value (strain MeLS0151, RNR2p-BenM + 209bp_CYC1p_BenO_T1:GFP, 24 h) was 3.735, the “Mean fluorescense intensities of GFP” value (strain MeLS0152, TDH3p-BenM) was 184 and the “FC (+/−CCM)” value (strain MeLS0152, TDH3p-BenM, 24 h) was 1.08. For the same molecule, the “Mean fluorescense intensities of GFP” value (strain MeLS0153, RNR2p-BenM) was 174, the “FC (+/−CCM)” value (strain MeLS0153, RNR2p-BenM, 24 h) was 1.13 and the “Mean fluorescense intensities of GFP” value (strain MeLS0156, TEF1p-BenM + 491bp_CYC1p:GFP) was 3016. For the same molecule, the “FC (+/−CCM)” value (strain MeLS0156, TEF1p-BenM + 491bp_CYC1p:GFP, 24 h) was 0.9902, the “Mean fluorescense intensities of GFP” value (strain MeLS0157, TEF1p-BenM + 272bp_CYC1p:GFP) was 198 and the “FC (+/−CCM)” value (strain MeLS0157, TEF1p-BenM + 272bp_CYC1p:GFP, 24 h) was 1.13. The “Mean fluorescense intensities of GFP” value (strain MeLS0158, TEF1p-BenM + 249bp_CYC1p:GFP) was 175, the “FC (+/−CCM)” value (strain MeLS0158, TEF1p-BenM + 249bp_CYC1p:GFP, 24 h) was 1.117 and the “Mean fluorescense intensities of GFP” value (strain MeLS0159, TEF1p-BenM + 209bp_CYC1p:GFP) was 177. For the same molecule, the “FC (+/−CCM)” value (strain MeLS0159, TEF1p-BenM + 209bp_CYC1p:GFP, 24 h) was 1.132, the “Mean fluorescense intensities of GFP” value (strain MeLS0160, RNR2p-BenM + 491bp_2YC1p:GFP) was 2811 and the “FC (+/−CCM)” value (strain MeLS0160, RNR2p-BenM + 491bp_2YC1p:GFP, 24 h) was 1.071. The “Mean fluorescense intensities of GFP” value (strain MeLS0161, RNR2p-BenM + 272bp_CYC1p:GFP) was 180 and the “FC (+/−CCM)” value (strain MeLS0161, RNR2p-BenM + 272bp_CYC1p:GFP, 24 h) was 1.049.
